# Data taken from ChEMBL document CHEMBL1275384, “Structure-activity relationships of benzimidazole-based selective inhibitors of the mitogen activated kinase-5 signaling pathway” (2010).
# How the values were obtained:
# [1] = molecular target: Dual specificity mitogen-activated protein kinase kinase; MEK1/2 (Homo sapiens) (UniProt P36507+Q02750); conditions: HEK293, at 10 µM
# Description: Inhibition of EGF-induced MEK1/2 activity in HEK293 cells assessed as phosphorylated ERK1/2 level at 10 uM after 1 hr by Western blotting relative to control
# [2] = molecular target: T1, Dual specificity mitogen-activated protein kinase kinase 5 (Homo sapiens) (UniProt Q13163); conditions: HEK293, at 10 µM;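 further: MEK5 activity stimulated by EGF, read out as phospho-ERK5 on Western blot after 1 h treatment, expressed relative to control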
# T1 sequence (whole entry): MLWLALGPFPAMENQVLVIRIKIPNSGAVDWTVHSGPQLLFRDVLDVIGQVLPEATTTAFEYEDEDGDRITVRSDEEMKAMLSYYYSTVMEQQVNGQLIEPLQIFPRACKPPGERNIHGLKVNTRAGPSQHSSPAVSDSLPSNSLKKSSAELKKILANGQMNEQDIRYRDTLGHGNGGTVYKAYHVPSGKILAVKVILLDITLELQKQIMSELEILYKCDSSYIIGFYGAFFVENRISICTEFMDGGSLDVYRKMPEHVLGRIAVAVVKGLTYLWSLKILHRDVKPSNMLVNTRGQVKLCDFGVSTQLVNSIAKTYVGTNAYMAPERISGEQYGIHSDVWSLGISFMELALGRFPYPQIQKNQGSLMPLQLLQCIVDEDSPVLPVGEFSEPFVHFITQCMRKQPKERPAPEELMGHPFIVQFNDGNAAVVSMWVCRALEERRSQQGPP
# Description: Inhibition of EGF-induced MEK5 activity in HEK293 cells assessed as phosphorylated ERK5 level at 10 uM after 1 hr by Western blotting relative to control
# A498 = test: Cytotoxicity against human A498 cells at 10 uM assessed as cell growth relative to control; assay type: functional; conditions: read-out: Activity
# SK-OV-3 = test: Cytotoxicity against human SKOV3 cells at 10 uM assessed as cell growth relative to control; assay type: functional; conditions: read-out: Activity
# DU-145 = test: Cytotoxicity against human DU145 cells at 10 uM assessed as cell growth relative to control; assay type: functional; conditions: read-out: Activity
# SNB-19 = test: Cytotoxicity against human SNB19 cells at 10 uM assessed as cell growth relative to control; assay type: functional; conditions: read-out: Activity
# SK-MEL-5 = test: Cytotoxicity against human SK-MEL-5 cells at 10 uM assessed as cell growth relative to control; assay type: functional; conditions: read-out: Activity
# HCT-116 = test: Cytotoxicity against human HCT116 cells at 10 uM assessed as cell growth relative to control; assay type: functional; conditions: read-out: Activity
# BT-549 = test: Cytotoxicity against human BT549 cells at 10 uM assessed as cell growth relative to control; assay type: functional; conditions: read-out: Activity
# HL-60(TB) = test: Cytotoxicity against human HL-60(TB) cells at 10 uM assessed as cell growth relative to control; assay type: functional; conditions: read-out: Activity
# MDA-N = test: Cytotoxicity against human MDA-N cells at 10 uM assessed as cell growth relative to control; assay type: functional; conditions: read-out: Activity
# OVCAR-5 = test: Cytotoxicity against human OVCAR5 cells at 10 uM assessed as cell growth relative to control; assay type: functional; conditions: read-out: Activity
# PC-3 = test: Cytotoxicity against human PC3 cells at 10 uM assessed as cell growth relative to control; assay type: functional; conditions: read-out: Activity
# RXF 393 = test: Cytotoxicity against human RXF393 cells at 10 uM assessed as cell growth relative to control; assay type: functional; conditions: read-out: Activity
# CCRF-CEM = test: Cytotoxicity against human CCRF-CEM cells at 10 uM assessed as cell growth relative to control; assay type: functional; conditions: read-out: Activity
# HOP-62 = test: Cytotoxicity against human HOP62 cells at 10 uM assessed as cell growth relative to control; assay type: functional; conditions: read-out: Activity
# SNB-75 = test: Cytotoxicity against human SNB75 cells at 10 uM assessed as cell growth relative to control; assay type: functional; conditions: read-out: Activity
# SN12C = test: Cytotoxicity against human SN12C cells at 10 uM assessed as cell growth relative to control; assay type: functional; conditions: read-out: Activity
# NCI-H522 = test: Cytotoxicity against human NCI-H522 cells at 10 uM assessed as cell growth relative to control; assay type: functional; conditions: read-out: Activity
# SF-539 = test: Cytotoxicity against human SF539 cells at 10 uM assessed as cell growth relative to control; assay type: functional; conditions: read-out: Activity
# M14 = test: Cytotoxicity against human M14 cells at 10 uM assessed as cell growth relative to control; assay type: functional; conditions: read-out: Activity
# NCI-H23 = test: Cytotoxicity against human NCI-H23 cells at 10 uM assessed as cell growth relative to control; assay type: functional; conditions: read-out: Activity
# MDA-MB-231 = test: Cytotoxicity against human MDA-MB-231 cells at 10 uM assessed as cell growth relative to control; assay type: functional; conditions: read-out: Activity
# NCI/ADR-RES = test: Cytotoxicity against human NCI/ADR-RES cells at 10 uM assessed as cell growth relative to control; assay type: functional; conditions: read-out: Activity
# U-251 = test: Cytotoxicity against human U251 cells at 10 uM assessed as cell growth relative to control; assay type: functional; conditions: read-out: Activity
# K562 = test: Cytotoxicity against human K562 cells at 10 uM assessed as cell growth relative to control; assay type: functional; conditions: read-out: Activity
# IGROV-1 = test: Cytotoxicity against human IGROV1 cells at 10 uM assessed as cell growth relative to control; assay type: functional; conditions: read-out: Activity
# Sequence of Dual specificity mitogen-activated protein kinase kinase; MEK1/2 (Homo sapiens) (P36507 whole entry, looked up): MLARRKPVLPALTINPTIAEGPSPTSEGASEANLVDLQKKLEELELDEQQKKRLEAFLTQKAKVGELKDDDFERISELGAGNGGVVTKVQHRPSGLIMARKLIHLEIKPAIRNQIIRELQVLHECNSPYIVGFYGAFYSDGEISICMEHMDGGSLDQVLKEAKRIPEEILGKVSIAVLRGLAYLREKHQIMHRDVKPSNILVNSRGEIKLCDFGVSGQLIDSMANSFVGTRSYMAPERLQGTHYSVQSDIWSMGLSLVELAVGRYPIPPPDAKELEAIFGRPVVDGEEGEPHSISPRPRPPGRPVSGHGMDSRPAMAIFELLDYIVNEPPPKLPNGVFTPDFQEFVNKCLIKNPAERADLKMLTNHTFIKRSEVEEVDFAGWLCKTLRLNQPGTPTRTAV
# Sequence of Dual specificity mitogen-activated protein kinase kinase; MEK1/2 (Homo sapiens) (Q02750 whole entry, looked up): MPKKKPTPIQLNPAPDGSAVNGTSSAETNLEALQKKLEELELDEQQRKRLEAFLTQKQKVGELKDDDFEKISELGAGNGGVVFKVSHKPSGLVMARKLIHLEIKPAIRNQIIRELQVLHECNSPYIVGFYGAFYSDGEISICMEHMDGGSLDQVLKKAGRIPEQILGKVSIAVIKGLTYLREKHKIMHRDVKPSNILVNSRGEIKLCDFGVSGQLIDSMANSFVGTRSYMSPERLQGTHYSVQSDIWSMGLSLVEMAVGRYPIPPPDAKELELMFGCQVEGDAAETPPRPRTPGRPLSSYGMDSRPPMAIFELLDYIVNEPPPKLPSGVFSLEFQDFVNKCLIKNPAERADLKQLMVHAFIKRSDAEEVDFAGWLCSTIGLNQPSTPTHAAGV
smiles,measurement,setting,value
CCOCCOc1cc(NCc2ccccc2)c2ncn(C(C)C)c2c1,inhibition,[1],100%
same,inhibition,[2],75%
CC(C)Oc1cc(NCc2ccccc2)c2ncn(C(C)C)c2c1,inhibition,[1],0%
same,inhibition,[2],22%
CCOc1cc(NCc2ccccc2)c2ncn(C(C)C)c2c1,inhibition,[2],63%
N#CC(=C(/N)Sc1ccccc1N)/C(C#N)=C(\N)Sc1ccccc1N,inhibition,[2],27%
CCCCOc1cc(NCc2ccccc2)c2ncn(C(C)C)c2c1,inhibition,[2],5%
CC(C)n1cnc2c(NCc3ccccc3)cc(OCCCN3CCOCC3)cc21,inhibition,[1],92%
same,inhibition,[2],0%
COc1cc(N)c2c(c1)N(C(C)C)CN2,inhibition,[1],18%
same,inhibition,[2],42%
CN1CCN(c2ccc3[nH]c(-c4ccc5[nH]c(-c6ccc(O)cc6)nc5c4)nc3c2)CC1 [HOECHST 33258],growth at 10 µM,A498,-4%
same,growth at 10 µM,SK-OV-3,-4%
same,growth at 10 µM,DU-145,-4%
same,growth at 10 µM,SNB-19,-4%
same,growth at 10 µM,SK-MEL-5,-4.01%
same,growth at 10 µM,HCT-116,-4.52%
same,growth at 10 µM,BT-549,-4%
same,growth at 10 µM,HL-60(TB),-4.62%
same,growth at 10 µM,MDA-N,-5.06%
same,growth at 10 µM,OVCAR-5,-4%
same,growth at 10 µM,PC-3,-4%
same,growth at 10 µM,RXF 393,-4%
same,growth at 10 µM,CCRF-CEM,-4.89%
same,growth at 10 µM,HOP-62,-4%
same,inhibition,[1],22%
same,growth at 10 µM,SNB-75,-4%
same,growth at 10 µM,SN12C,-4%
same,growth at 10 µM,NCI-H522,-5.52%
same,inhibition,[2],30%
same,growth at 10 µM,SF-539,-4%
same,growth at 10 µM,M14,-4%
same,growth at 10 µM,NCI-H23,-4%
same,growth at 10 µM,MDA-MB-231,-4%
same,growth at 10 µM,NCI/ADR-RES,-4%
same,growth at 10 µM,U-251,-4%
same,growth at 10 µM,K562,-5.22%
same,growth at 10 µM,IGROV-1,-4%
CCCOc1cc(NCc2ccccc2)c2ncn(C(C)C)c2c1,inhibition,[2],24%
